The CheMixHub viscosity set

Assay: xn = mol fraction of the nth substance listed

C1CCC2=[NH+]CCCN2CC1.c1nc[n-]n1 + CCO
303.15 K, 100 kPa
Details	viscosity [mPa·s]
x1 = 0.1001	4.38
x1 = 0.2	9.22
x1 = 0.2999	22.01
x1 = 0.4003	47.32
x1 = 0.4989	90.79
x1 = 0.6002	174.5
x1 = 0.7008	325.1
x1 = 0.7993	472.2
x1 = 0.9002	830.6

CC(C)CO + CCO
101 kPa, x2 = 0.5
Details	viscosity [mPa·s]
308.15 K	1.598
313.15 K	1.479
318.15 K	1.308

CCCC=O + CCO
298.1 K, 101 kPa
Details	viscosity [mPa·s]
x1 = 0.1009	1.261
x1 = 0.1952	1.413
x1 = 0.3034	1.484
x1 = 0.3333	1.463
x1 = 0.3989	1.366
x1 = 0.5109	1.103
x1 = 0.5976	0.896
x1 = 0.7003	0.7
x1 = 0.7924	0.564
x1 = 0.8988	0.468

CCCCCC + CCO
298.15 K
Details	viscosity [mPa·s]
100 kPa, x1 = 0.0432	0.9721
100 kPa, x1 = 0.1024	0.848
100 kPa, x1 = 0.1981	0.702
100 kPa, x1 = 0.3027	0.5885
100 kPa, x1 = 0.4066	0.5026
100 kPa, x1 = 0.5031	0.439
100 kPa, x1 = 0.5999	0.3881
100 kPa, x1 = 0.7007	0.3479
100 kPa, x1 = 0.8026	0.3191
100 kPa, x1 = 0.8955	0.3025
100 kPa, x1 = 0.971	0.2965
101 kPa, x1 = 0.0149	1.046
101 kPa, x2 = 0.1035	0.3031
101 kPa, x2 = 0.1286	0.306
101 kPa, x2 = 0.2846	0.3322
101 kPa, x2 = 0.3428	0.3666
101 kPa, x2 = 0.4373	0.4133
101 kPa, x2 = 0.4727	0.4249
101 kPa, x2 = 0.533	0.4651
101 kPa, x2 = 0.5802	0.4994
101 kPa, x2 = 0.6757	0.5717
101 kPa, x2 = 0.7394	0.6511
101 kPa, x2 = 0.8689	0.8184
101 kPa, x2 = 0.8995	0.8715
101 kPa, x2 = 0.9793	1.033
101.33 kPa, x2 = 0.0569	0.315
101.33 kPa, x2 = 0.1499	0.325
101.33 kPa, x2 = 0.2731	0.363
101.33 kPa, x2 = 0.439	0.438
101.33 kPa, x2 = 0.5984	0.528
101.33 kPa, x2 = 0.7241	0.632
101.33 kPa, x2 = 0.8282	0.757
101.33 kPa, x2 = 0.9076	0.895
101.33 kPa, x2 = 0.9673	1.022

COC(N)=O + CCOC(N)=O
101.33 kPa, x2 = 0.5
Details	viscosity [mPa·s]
298.15 K	7.716
313.15 K	4.41

C=CC(=O)OC + CCOCCOCCO
viscosity [mPa·s], 101 kPa
Details	293.15 K	298.15 K	303.15 K	308.15 K	313.15 K	318.15 K
x2 = 0.0702	0.594	0.558	0.5	0.469	0.447	0.428
x2 = 0.1404	0.695	0.65	0.607	0.572	0.539	0.507
x2 = 0.2131	0.826	0.767	0.715	0.671	0.624	0.589
x2 = 0.2822	0.95	0.877	0.813	0.756	0.705	0.659
x2 = 0.3597	1.133	1.038	0.955	0.884	0.82	0.762
x2 = 0.4297	1.346	1.226	1.109	1.019	0.941	0.872
x2 = 0.5002	1.574	1.428	1.288	1.171	1.076	0.992
x2 = 0.5703	1.835	1.648	1.479	1.355	1.236	1.125
x2 = 0.6412	2.109	1.904	1.715	1.547	1.405	1.286
x2 = 0.7172	2.478	2.199	1.976	1.782	1.605	1.457
x2 = 0.7906	2.868	2.529	2.247	2.017	1.819	1.656
x2 = 0.8598	3.295	2.893	2.534	2.279	2.031	1.836
x2 = 0.9184	3.692	3.212	2.788	2.508	2.226	2.016
